Key:
Type in all cases: biochemical
KRAS G12D = KRAS G12D (Homo sapiens (Human), UniProt P01116+P62937, G12D); test: Ras-Raf (BRAF RBD) disruption / FRET / MOA assay, KRAS G12D; conditions: Ras-Raf disruption/FRET/MOA assay; class symbols; read-out: KRAS G12D FRET data IC50
How it was run: (§1)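 Compounds, top final concentration 30 μM in 10-point 3-fold series, incubated 3 hours at 25° C with nucleotide-loaded Ras, cyclophilin A and BRAF RBD.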

KRAS Q61H = KRAS Q61H (Homo sapiens (Human), UniProt P01116+P62937, Q61H); test: Ras-Raf (BRAF RBD) disruption / FRET / MOA assay, KRAS Q61H; conditions: Ras-Raf disruption/FRET/MOA assay; class symbols; read-out: KRAS Q61H FRET data IC50
Chain of KRAS Q61H (P01116-2 other isoform, or with tags, fused parts or gaps Q61H): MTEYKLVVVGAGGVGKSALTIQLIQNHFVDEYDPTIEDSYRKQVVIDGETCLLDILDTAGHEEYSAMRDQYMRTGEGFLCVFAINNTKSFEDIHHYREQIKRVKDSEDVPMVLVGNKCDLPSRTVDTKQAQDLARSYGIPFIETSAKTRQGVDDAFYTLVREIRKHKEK
Chain of KRAS Q61H (P62937 whole entry): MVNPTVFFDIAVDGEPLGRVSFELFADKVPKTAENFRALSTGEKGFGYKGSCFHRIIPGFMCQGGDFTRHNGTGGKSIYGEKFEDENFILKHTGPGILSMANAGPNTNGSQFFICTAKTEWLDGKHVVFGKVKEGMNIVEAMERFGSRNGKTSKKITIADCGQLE
How it was run: (§2)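 TR-FRET disruption of nucleotide-loaded Ras binding to BRAF RBD via compound-driven ternary complex with cyclophilin A. Compound as 10-point 3-fold series from 30 μM final, 3 h at 25° C, then anti-His Eu-W1024 (10 nM) and anti-GST allophycocyanin (50 nM) for 1.5 h. IC50 from decreased FRET ratio versus DMSO.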

K-Ras G12C = K-Ras G12C (Homo sapiens (Human), UniProt P01116+P62937, G12C); test: Ras-Raf (BRAF RBD) disruption / FRET / MOA assay, KRAS G12C; conditions: KRAS G12C; Ras-Raf disruption/FRET/MOA assay; read-out: IC50* KRAS G12C FRET data
Chain of K-Ras G12C (P01116-2 other isoform, or with tags, fused parts or gaps G12C): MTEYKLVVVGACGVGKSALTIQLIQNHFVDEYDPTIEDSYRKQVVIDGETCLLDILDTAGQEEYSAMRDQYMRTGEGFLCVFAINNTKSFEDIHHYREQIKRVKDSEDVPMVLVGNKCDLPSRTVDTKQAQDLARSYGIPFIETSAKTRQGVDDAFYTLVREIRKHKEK
Chain of K-Ras G12C (P62937 whole entry): as the sequence (P62937 whole entry) above
How it was run: as §1

NRAS G12C = NRAS G12C (Homo sapiens (Human), UniProt P01111+P62937, G12C); test: Ras-Raf (BRAF RBD) disruption / FRET / MOA assay, NRAS G12C; conditions: read-out: IC50* NRAS G12C FRET data
Chain of NRAS G12C (P01111 whole entry G12C): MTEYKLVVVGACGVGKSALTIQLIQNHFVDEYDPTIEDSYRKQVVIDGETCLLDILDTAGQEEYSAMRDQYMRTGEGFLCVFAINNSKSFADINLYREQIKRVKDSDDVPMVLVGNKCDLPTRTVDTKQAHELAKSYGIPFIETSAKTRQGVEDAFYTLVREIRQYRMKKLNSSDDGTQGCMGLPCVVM
Chain of NRAS G12C (P62937 whole entry): as the sequence (P62937 whole entry) above
How it was run: as §1

KRAS G12V = KRAS G12V (Homo sapiens (Human), UniProt P01116+P62937, G12V); test: Ras-Raf (BRAF RBD) disruption / FRET / MOA assay, KRAS G12V; conditions: read-out: IC50* KRAS G12V FRET data
Chain of KRAS G12V (P01116-2 other isoform, or with tags, fused parts or gaps G12V): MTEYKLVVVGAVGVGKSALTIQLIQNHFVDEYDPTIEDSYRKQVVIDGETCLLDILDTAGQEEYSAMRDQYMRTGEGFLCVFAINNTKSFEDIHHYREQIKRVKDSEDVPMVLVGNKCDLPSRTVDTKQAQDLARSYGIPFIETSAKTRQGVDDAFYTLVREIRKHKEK
Chain of KRAS G12V (P62937 whole entry): as the sequence (P62937 whole entry) above
How it was run: as §1

NRAS WT = NRAS WT (Homo sapiens (Human), UniProt P01111+P62937); test: Ras-Raf (BRAF RBD) disruption / FRET / MOA assay, NRAS WT; conditions: read-out: IC50* NRAS WT FRET data
Chain of NRAS WT (P01111 whole entry): as the sequence (P01111 whole entry G12C) above, with C12G counted along it
Chain of NRAS WT (P62937 whole entry): as the sequence (P62937 whole entry) above
How it was run: as §2

KRAS G13D = KRAS G13D (Homo sapiens (Human), UniProt P01116+P62937, G13D); test: Ras-Raf (BRAF RBD) disruption / FRET / MOA assay, KRAS G13D; conditions: read-out: IC50* KRAS G13D FRET data
Chain of KRAS G13D (P01116-2 other isoform, or with tags, fused parts or gaps G13D): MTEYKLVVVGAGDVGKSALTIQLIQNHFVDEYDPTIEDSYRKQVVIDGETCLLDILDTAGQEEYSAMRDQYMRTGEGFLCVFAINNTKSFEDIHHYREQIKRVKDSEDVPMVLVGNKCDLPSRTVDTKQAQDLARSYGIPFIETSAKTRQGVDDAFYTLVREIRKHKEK
Chain of KRAS G13D (P62937 whole entry): as the sequence (P62937 whole entry) above
How it was run: as §1

NRAS Q61K = NRAS Q61K (Homo sapiens (Human), UniProt P01111+P62937, Q61K); test: Ras-Raf (BRAF RBD) disruption / FRET / MOA assay, NRAS Q61K; conditions: NRAS Q61K; Ras-Raf disruption/FRET/MOA assay; read-out: IC50* NRAS Q61K FRET data
Chain of NRAS Q61K (P01111 whole entry Q61K): as the sequence (P01111 whole entry G12C) above, with C12G, Q61K counted along it
Chain of NRAS Q61K (P62937 whole entry): as the sequence (P62937 whole entry) above
How it was run: as §2

K-Ras G13C = K-Ras G13C (Homo sapiens (Human), UniProt P01116+P62937, G13C); test: Ras-Raf (BRAF RBD) disruption / FRET / MOA assay, KRAS G13C; conditions: KRAS G13C; Ras-Raf disruption/FRET/MOA assay; read-out: IC50* KRAS G13C FRET data
Chain of K-Ras G13C (P01116-2 other isoform, or with tags, fused parts or gaps G13C): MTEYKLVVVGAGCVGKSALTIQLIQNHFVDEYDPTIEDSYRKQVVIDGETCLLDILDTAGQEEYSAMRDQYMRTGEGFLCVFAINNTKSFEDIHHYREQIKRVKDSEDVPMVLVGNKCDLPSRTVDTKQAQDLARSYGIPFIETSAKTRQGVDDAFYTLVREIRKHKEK
Chain of K-Ras G13C (P62937 whole entry): as the sequence (P62937 whole entry) above
How it was run: as §1

Chain of KRAS G12D (P01116-2 other isoform, or with tags, fused parts or gaps G12D): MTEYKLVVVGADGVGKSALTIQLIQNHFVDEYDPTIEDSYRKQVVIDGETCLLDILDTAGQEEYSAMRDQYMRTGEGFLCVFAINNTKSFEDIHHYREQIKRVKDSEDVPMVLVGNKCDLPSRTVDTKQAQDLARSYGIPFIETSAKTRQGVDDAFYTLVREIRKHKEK
Chain of KRAS G12D (P62937 whole entry): as the sequence (P62937 whole entry) above

SMILES	IC50 (KRAS G12D) [nM]	IC50 (KRAS Q61H) [nM]	IC50 (K-Ras G12C) [nM]	IC50 (NRAS G12C) [nM]	IC50 (KRAS G12V) [nM]	IC50 (NRAS WT) [nM]	IC50 (KRAS G13D) [nM]	IC50 (NRAS Q61K) [nM]	IC50 (K-Ras G13C) [nM]
C=CC(=O)Nc1cnc(OC[C@H](C(=O)N[C@H]2Cc3cccc(c3)-c3ccc4c(c3)c(c(-c3cccnc3[C@H](C)OC)n4CC)CC(C)(C)COC(=O)[C@@H]3CCCN(N3)C2=O)C(C)C)n1C (atropisomer, axis not shown) [Example A600]	1000 to 10000	100 to 1000	< 10	< 10	1000 to 10000	100 to 1000	1000 to 10000	1000 to 10000	10 to 100
CO[C@@H](C)c1ncccc1-c1c2c3cc(ccc3n1CC(F)(F)F)N1CCO[C@@H](C[C@H](NC(=O)[C@H](C(C)C)N3CC[C@@]4(CCN(C(=O)C#CC(C)(C)N(C)C)C4)C3=O)C(=O)N3CCC[C@H](N3)C(=O)OCC(C)(C)C2)C1 (atropisomer, axis not shown) [Example A628]	> 10000	> 10000	< 10	< 10	1000 to 10000	> 10000	> 10000	> 10000	1000 to 10000
C=CC(=O)N1CC[C@H](C(=O)N(C)[C@H](C(=O)N[C@H]2Cc3cccc(c3)-c3ccc4c(c3)c(c(-c3cccnc3[C@H](C)OC)n4CC)CC(C)(C)COC(=O)[C@@H]3CCCN(N3)C2=O)C(C)(C)F)C1 (atropisomer, axis not shown) [Example A693]	> 10000	1000 to 10000	100 to 1000	100 to 1000	1000 to 10000	1000 to 10000	1000 to 10000	1000 to 10000	1000 to 10000
C=CC(=O)N1CCO[C@H]2CN(C(=O)N(C)[C@H](C(=O)N[C@H]3Cc4coc(n4)-c4ccc5c(c4)c(c(-c4cccnc4[C@H](C)OC)n5CC(F)(F)F)CC(C)(C)COC(=O)[C@@H]4CCCN(N4)C3=O)C(C)C)C[C@H]21 (atropisomer, axis not shown) [Example A574]	> 10000	100 to 1000	100 to 1000	10 to 100	1000 to 10000	1000 to 10000	1000 to 10000	100 to 1000	10 to 100
C=CC(=O)N1CCN(C(=O)N(C)[C@H](C(=O)N[C@H]2Cc3nc(cs3)-c3ccc4c(c3)c(c(-c3cccnc3[C@H](C)OC)n4CC)CC(C)(C)COC(=O)[C@@H]3CCCN(N3)C2=O)C(C)C)[C@H]2CC[C@H]21 (atropisomer, axis not shown) [Example A734]	100 to 1000	10 to 100	10 to 100	10 to 100	10 to 100	10 to 100	100 to 1000	10 to 100	10 to 100
C=CC(=O)N1CC[C@H](C(=O)N(C)[C@H](C(=O)N[C@H]2Cc3cccc(c3)-c3ccc4c(c3)c(c(-c3cccnc3[C@H](C)OC)n4CC#CC)CC(C)(C)COC(=O)[C@@H]3CCCN(N3)C2=O)C(C)C)C1 (atropisomer, axis not shown) [Example A531]	> 10000	1000 to 10000	100 to 1000	100 to 1000	1000 to 10000	1000 to 10000	> 10000	1000 to 10000	1000 to 10000
C=CC(=O)N(C)[C@H]1CN(C(=O)N(C)[C@H](C(=O)N[C@H]2Cc3nc(cs3)-c3ccc4c(c3)c(c(-c3cccnc3[C@H](C)OC)n4CC)CC(C)(C)COC(=O)[C@@H]3CCCN(N3)C2=O)C(C)C)C[C@H]1F (atropisomer, axis not shown) [Example A631]	1000 to 10000	10 to 100	100 to 1000	10 to 100	100 to 1000	100 to 1000	100 to 1000	10 to 100	100 to 1000
C=CC(=O)N1CC2(COCCN2C(=O)N(C)[C@H](C(=O)N[C@H]2Cc3nc(cs3)-c3ccc4c(c3)c(c(-c3cccnc3[C@H](C)OC)n4CC)CC(C)(C)COC(=O)[C@@H]3CCCN(N3)C2=O)C(C)C)C1 (atropisomer, axis not shown) [Example A352]	> 10000	1000 to 10000	10 to 100	10 to 100	> 10000	1000 to 10000	> 10000	1000 to 10000	> 10000
CO[C@@H](C)c1ncccc1-c1c2c3cc(ccc3n1CC(F)(F)F)-c1csc(n1)C[C@H](NC(=O)CCOC1CN(C(=O)C#CC(C)(C)N(C)C)C1)C(=O)N1CCC[C@H](N1)C(=O)OCC(C)(C)C2 (atropisomer, axis not shown) [Example A380]	1000 to 10000	1000 to 10000	< 10	< 10	100 to 1000	1000 to 10000	1000 to 10000	1000 to 10000	100 to 1000
CCn1c(-c2cccnc2[C@H](C)OC)c2c3cc(ccc31)N1CCO[C@@H](C[C@H](NC(=O)[C@@H](COC3CCN(C(=O)C#CC(C)(C)N(C)C)CC3)C(C)C)C(=O)N3CCC[C@H](N3)C(=O)OCC(C)(C)C2)C1 (atropisomer, axis not shown) [Example A643, (2R)-2-(((1-(4-(dimethylamino)-4-methylpent-2-ynoyl)piperidin-4-yl)oxy)methyl)-N-((2^2S,6^3S,4S)-1^1-ethyl-1^2-(2-((S)-1-methoxyethyl)pyridin-3-yl)-10,10-dimethyl-5,7-dioxo-6^1,6^2,6^3,6^4,6^5,6^6-hexahydro-1^1H-8-oxa-2(4,2)-morpholina-1(5,3)-indola-6(1,3)-pyridazinacycloundecaphane-4-yl)-3-methylbutanamide]	> 10000	> 10000	10 to 100	10 to 100	> 10000	> 10000	> 10000	> 10000	1000 to 10000
C=CC(=O)N1C[C@H](C)N(C(=O)N(C)[C@H](C(=O)N[C@H]2Cc3nc(cs3)-c3ccc4c(c3)c(c(-c3cccnc3[C@H](C)OC)n4CC)CC(C)(C)COC(=O)[C@@H]3CCCN(N3)C2=O)C(C)C)CC12CC2 (atropisomer, axis not shown) [Example A586]	1000 to 10000	10 to 100	100 to 1000	100 to 1000	100 to 1000	100 to 1000	1000 to 10000	100 to 1000	100 to 1000
C=CC(=O)N1CC[C@@]2(COCCN2C(=O)N(C)[C@H](C(=O)N[C@H]2Cc3nc(cs3)-c3ccc4c(c3)c(c(-c3cccnc3[C@H](C)OC)n4CC)CC(C)(C)COC(=O)[C@@H]3CCCN(N3)C2=O)C(C)C)C1 (atropisomer, axis not shown) [Example A677]	1000 to 10000	100 to 1000	100 to 1000	100 to 1000	1000 to 10000	100 to 1000	1000 to 10000	100 to 1000	1000 to 10000
C=CC(=O)N1CCC[C@@H]2CN(C(=O)N(C)[C@H](C(=O)N[C@H]3Cc4nc(cs4)-c4ccc5c(c4)c(c(-c4cccnc4[C@H](C)OC)n5CC)CC(C)(C)COC(=O)[C@@H]4CCCN(N4)C3=O)C(C)C)C[C@@H]21 (atropisomer, axis not shown) [Example A619]	1000 to 10000	100 to 1000	100 to 1000	100 to 1000	1000 to 10000	1000 to 10000	1000 to 10000	100 to 1000	100 to 1000
CCn1c(-c2cccnc2[C@H](C)OC)c2c3cc(ccc31)-c1cccc(c1)C[C@H](NC(=O)[C@H](C(C)C)N1CC[C@@]3(CCN(C(=O)C#C[C@@H]4COCCN4C4COC4)C3)C1=O)C(=O)N1CCC[C@H](N1)C(=O)OCC(C)(C)C2 [Example A566]	1000 to 10000	100 to 1000	10 to 100	10 to 100	1000 to 10000	1000 to 10000	1000 to 10000	1000 to 10000	100 to 1000
C=CC(=O)N(C)[C@@H]1C[C@H]1N(C)C(=O)N(C)[C@H](C(=O)N[C@H]1Cc2nc(cs2)-c2ccc3c(c2)c(c(-c2cccnc2[C@H](C)OC)n3CC)CC(C)(C)COC(=O)[C@@H]2CCCN(N2)C1=O)C(C)C (atropisomer, axis not shown) [Example A739]	1000 to 10000	10 to 100	100 to 1000	100 to 1000	1000 to 10000	100 to 1000	1000 to 10000	10 to 100	100 to 1000

— patent US11566007B2, “Ras inhibitors” (Revolution Medicines, Inc., priority 2019, dated 2023)
